According to patent US20230310436A1, “COMBINATION THERAPY FOR CANCERS WITH KRAS MUTATION” (COTHERA BIOSCIENCE, INC., priority 2019, published 2023):

Tests used:
Format in all cases: cell-based
[1] = tested on: KRAS^G12V-NSCLC H2291 cell line; test: Ex vivo Edu proliferation test (MI, GI %), H2291; conditions: Table 3; 7 days; uM: osimertinib 0.5, afatinib 0.2, trametinib 0.02, TAK-733 0.18, palbociclib 0.15, ribociclib 5
Protocol: (§1) For ex vivo drug testing, the cells were exposed to a combination of drugs or single drugs for 4 days or 7 days. Following exposure with drug, 1,000-5,000 cells were labeled with 5-ethynyl-2′-deoxyuridine (Edu) to assess the tumor cell proliferation rates. The labeling lasted 24 hours in the presence of drug exposure. In the control group, epithelial tumor cells received no drug exposure with media change (with 0.1% DMSO), but were similarly labeled with Edu. The labeled cells were fixed and blocked with 3% BSA and 0.5% Triton X-100 for 2 hours at room temperature, followed by staining with Hoechst 33342 and EpCAM antibody (1:4000) in PBS solution containing 0.5% Triton X-100 overnight at 4° C. Subsequently, the cells were rinsed with PBST then incubated with Alexa Fluor® 647 conjugated goat-antimouse secondary antibody for 30 minutes at room temperature.
(§2) The incorporated Edu was detected by Click-iT reaction where fixed cells were incubated with a reaction mixture containing 1× Click-iT Edu reaction buffer, CuSO4, and azide-conjugated Alexa Fluor dye in the dark. The stained cells were washed with PBS two times before image acquisition and analysis.
(§3) For image acquisition and analysis, the stained tumor cells were imaged by a high-content screening (HCS) platform (Thermo Scientific CellomicsArrayScanXTi HCS reader). The 10× objective was used to collect images. Twenty-five fields were imaged for each well for the analysis. From the images three fluorescent signals were obtained from the HCS reader. Blue fluorescent signals recorded nucleus signals stained with Hoechst 33342, green fluorescent signal detected the Edu incorporated in newly synthesized DNA, and red fluorescent signal detected the EpCAM positive epithelial cells population.
(§4) The MI (Maximum Inhibition Index) was calculated using the EpCAM and Edu positive readout (Tables 1-4). MI=Edu positive cells in control/Edu positive cells in treatment. MI4 indicates an MI value after 4 days of treatment and MI7 indicates an MI values after 7 days of treatment. The MI and growth inhibition rate (GI %) values for KRAS^G12A-NSCLC (H1573 and H2009), KRAS^G12C-NSCLC (H358, H23 and H2030), KRAS^G12V-NSCLC (H2291 and H2444) and KRAS^G12D-NSCLC (H1588 and SK-LU-1) cell lines are shown in Tables 1-4, respectively. GI % is calculated as GI %=(1−1/MI)*100%.

[2] = tested on: KRAS^G12D-NSCLC H1588 cell line; test: Ex vivo Edu proliferation test (MI, GI %), H1588; conditions: Table 4; 4 days; uM: osimertinib 0.5, afatinib 0.2, cobimetinib 0.4, trametinib 0.02, TAK-733 0.18, palbociclib 0.15, ribociclib 5
Protocol: as §1, §2, §3, §4

[3] = tested on: KRAS^G12D-NSCLC SK-LU-1 cell line; test: Ex vivo Edu proliferation test (MI, GI %), SK-LU-1; conditions: Table 4; 4 days; uM: osimertinib 0.5, afatinib 0.2, cobimetinib 0.4, trametinib 0.02, TAK-733 0.18, palbociclib 0.15, ribociclib 5
Protocol: as §1, §2, §3, §4

[4] = tested on: KRAS^G12V-NSCLC H2444 cell line; test: Ex vivo Edu proliferation test (MI, GI %), H2444; conditions: Table 3; 4 days; uM: osimertinib 0.5, afatinib 0.2, trametinib 0.02, TAK-733 0.18, palbociclib 0.15, ribociclib 5
Protocol: as §1, §2, §3, §4

[5] = tested on: KRAS^G12C-NSCLC H358 cell line; test: Ex vivo Edu proliferation test (MI, GI %), H358; conditions: Table 2a; 7 days; uM: osimertinib 0.5, afatinib 0.2, cobimetinib 0.4, trametinib 0.02, palbociclib 0.15, ribociclib 5
Protocol: as §1, §2, §3, §4

[6] = tested on: KRAS^G12A-NSCLC H2009 cell line; test: Ex vivo Edu proliferation test (MI, GI %), H2009; conditions: Table 1; 4 days; uM: osimertinib 0.5, afatinib 0.2, cobimetinib 0.4, trametinib 0.02, TAK-733 0.18, palbociclib 0.15, ribociclib 5
Protocol: as §1, §2, §3, §4

[7] = tested on: KRAS^G12C-NSCLC H23 cell line; test: Ex vivo Edu proliferation test (MI, GI %), H23; conditions: Table 2a; 7 days; uM: osimertinib 0.5, afatinib 0.2, cobimetinib 0.4, trametinib 0.02, palbociclib 0.15, ribociclib 5
Protocol: as §1, §2, §3, §4

[8] = tested on: KRAS^G12C-NSCLC H2030 cell line; test: Ex vivo Edu proliferation test (MI, GI %), H2030; conditions: Table 2a; 7 days; uM: osimertinib 0.5, afatinib 0.2, cobimetinib 0.4, trametinib 0.02, palbociclib 0.15, ribociclib 5
Protocol: as §1, §2, §3, §4

[9] = tested on: KRAS^G12A-NSCLC H1573 cell line; test: Ex vivo Edu proliferation test (MI, GI %), H1573; conditions: Table 1; 4 days; uM: osimertinib 0.5, afatinib 0.2, cobimetinib 0.4, trametinib 0.02, TAK-733 0.18, palbociclib 0.15, ribociclib 5
Protocol: as §1, §2, §3
The MI (Maximum Inhibition Index) was calculated using the EpCAM and Edu positive readout (Tables 1-4). MI=Edu positive cells in control/Edu positive cells in treatment. MI4 indicates an MI value after 4 days of treatment and MI7 indicates an MI values after 7 days of treatment. […] GI % is calculated as GI %=(1−1/MI)*100%.

**Q.** How did the “GI % (Growth Inhibition Rate), H2291” value [1] turn out when `CC(=O)Nc1cccc(-n2c(=O)n(C3CC3)c(=O)c3c(Nc4ccc(I)cc4F)n(C)c(=O)c(C)c32)c1` [Trametinib, trametinib] was run?
**A.** Its value is 75.62%.

**Q.** What about the “MI 7 (Maximum Inhibition Index), H2291” value [1] of the same compound?
**A.** The value was 4.11.

**Q.** What about the “GI % (Growth Inhibition Rate), H1588” value [2] of the same compound?
**A.** Its value is 45.63%.

**Q.** And the “MI 4 (Maximum Inhibition Index), H1588” value [2]?
**A.** Its value is 1.84.

**Q.** What about the “GI % (Growth Inhibition Rate), SK-LU-1” value [3] of the same compound?
**A.** Its value is 47.99%.

**Q.** And the “MI 4 (Maximum Inhibition Index), SK-LU-1” value [3]?
**A.** Its value is 1.92.

**Q.** What about the “GI % (Growth Inhibition Rate), H2444” value [4] of the same compound?
**A.** Its value is 87.22%.

**Q.** What about the “MI 4 (Maximum Inhibition Index), H2444” value [4] of the same compound?
**A.** The value was 7.82.

**Q.** What about the “GI % (Growth Inhibition Rate), H358” value [5] of the same compound?
**A.** The value was 20.76%.

**Q.** And the “MI 7 (Maximum Inhibition Index), H358” value [5]?
**A.** The value was 1.26.

**Q.** What about the “GI % (Growth Inhibition Rate), H2009” value [6] of the same compound?
**A.** Its value is 65.93%.

**Q.** And the “MI 4 (Maximum Inhibition Index), H2009” value [6]?
**A.** Its value is 2.93.

**Q.** And the “GI % (Growth Inhibition Rate), H23” value [7]?
**A.** Its value is 1.20%.

**Q.** And the “MI 7 (Maximum Inhibition Index), H23” value [7]?
**A.** The value was 1.01.

**Q.** And the “GI % (Growth Inhibition Rate), H2030” value [8]?
**A.** Its value is 64.45%.

**Q.** What about the “MI 7 (Maximum Inhibition Index), H2030” value [8] of the same compound?
**A.** The value was 2.81.

**Q.** What about the “GI % (Growth Inhibition Rate), H1573” value [9] of the same compound?
**A.** Its value is 87.80%.

**Q.** And the “MI 4 (Maximum Inhibition Index), H1573” value [9]?
**A.** The value was 8.20.
